Laboratory results reported in US7247633B2, “Pyrimidine compounds and their use” (Biovitrum AB, priority 2000, dated 2007).
Structures can show the parent of a compound that is named as a salt.

Test system: not given
Assay: not given
Details: controlled studies; cited from earlier work
In the case of `CCN[C@@H](C)Cc1cccc(C(F)(F)F)c1` [dexfenfluramine], the weight reduction is listed as “exhibited weight reduction”.
For `CNCCC(Oc1ccc(C(F)(F)F)cc1)c1ccccc1` (centres unmarked) [fluoxetine], the weight reduction is listed as “exhibited weight reduction”.

Test system: not given
Assay: not given
Details: obese subjects, after 2 weeks of treatment; cited from earlier work
For `Clc1cccc(N2CCNCC2)c1` [mCPP, m-chlorophenylpiperazine], the body weight is listed as “slight but sustained reduction in body weight”.

Target: T1, human 5-HT2c receptor (Homo sapiens, UniProt P28335)
T1 construct: expressed in transfected cells
T1 sequence (P28335 33-458): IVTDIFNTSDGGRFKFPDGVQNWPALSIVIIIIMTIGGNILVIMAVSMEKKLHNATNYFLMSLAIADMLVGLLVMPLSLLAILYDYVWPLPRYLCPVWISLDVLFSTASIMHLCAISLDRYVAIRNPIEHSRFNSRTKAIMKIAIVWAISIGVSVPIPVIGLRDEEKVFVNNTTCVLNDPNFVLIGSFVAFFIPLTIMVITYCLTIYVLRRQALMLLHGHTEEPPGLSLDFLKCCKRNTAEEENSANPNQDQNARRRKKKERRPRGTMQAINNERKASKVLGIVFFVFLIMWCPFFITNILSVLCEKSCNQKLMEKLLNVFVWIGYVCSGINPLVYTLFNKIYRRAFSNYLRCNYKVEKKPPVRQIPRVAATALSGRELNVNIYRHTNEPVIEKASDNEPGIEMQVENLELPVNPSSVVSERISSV
Assay: 5-HT2c receptor affinity assay (displacement of 3H-labelled 5-HT, Scintillation Proximity Assay)
Details: membranes of HEK293 cells stably expressing human 5-HT2c receptor; 3H-5-HT; non-specific binding 5 μM mianserin
Description: The 5-HT2c receptor affinity of compounds in the Examples was determined in competition experiments, where the ability of each compound in serial dilution to displace ^3H-labelled 5-HT, bound to membranes prepared from a transfected HEK293 cell line stably expressing the human 5-HT2c receptor protein, was monitored by Scintillation Proximity Assay technology. Non-specific binding was defined using 5 μM mianserin.
`CC(Oc1cncc(N2CCNCC2)n1)c1cccc(F)c1` (centres unmarked) [Example 2, 2-[1-(3-Fluorophenyl)ethoxy]-6-(1-piperazinyl)pyrazine] gave a Ki of 8 nM.
`c1cncc(CCOc2cncc(N3CCNCC3)n2)c1` [Example 12, 2-(1-Piperazinyl)-6-[2-(3-pyridinyl)ethoxy]pyrazine] gave a Ki of 197 nM.
Work on `c1coc(-c2cncc(N3CCNCC3)n2)c1` [Example 15, 2-(2-Furyl)-6-(1-piperazinyl)pyrazine] yielded a Ki of 616 nM.
`c1cc(OCc2cccs2)nc(N2CCNCC2)c1` [Example 18, 1-[6-(2-Thienylmethoxy)-2-pyridinyl]piperazine] gave a Ki of 92 nM.
Work on `c1ccc(COc2cncc(N3CCNCC3)n2)cc1` [Example 20, 2-(Benzyloxy)-6-(1-piperazinyl)pyrazine] yielded a Ki of 28 nM.
For `FCCOc1cncc(N2CCNCC2)n1` [Example 23, 2-(2-Fluoroethoxy)-6-(1-piperazinyl)pyrazine], the Ki was 478 nM.
`c1ccc(COc2ccnc(N3CCNCC3)n2)cc1` [Example 32, 4-(Benzyloxy)-2-(1-piperazinyl)pyrimidine] showed a Ki of 48 nM.
Molecule `c1ccc(CCCCCOc2cncc(OC3CCNCC3)n2)cc1` [Example 48, 2-[(5-Phenylpentyl)oxy]-6-(4-piperidinyloxy)pyrazine] has a Ki of 37 nM.

Test system: 5-HT2c receptor
Assay: not given
Details: mice expressing the mutated inactive form of the 5-HT2c receptor; cited from earlier work
In the case of `Clc1cccc(N2CCNCC2)c1` [mCPP, m-chlorophenylpiperazine], the food intake is given as “lacks activity”.

Target: T2, 5-HT2c receptor (Mus musculus, UniProt P34968)
T2 construct: mice that express the normal 5-HT2c receptor; host or cells: mice, in vivo
T2 sequence (P34968 33-459): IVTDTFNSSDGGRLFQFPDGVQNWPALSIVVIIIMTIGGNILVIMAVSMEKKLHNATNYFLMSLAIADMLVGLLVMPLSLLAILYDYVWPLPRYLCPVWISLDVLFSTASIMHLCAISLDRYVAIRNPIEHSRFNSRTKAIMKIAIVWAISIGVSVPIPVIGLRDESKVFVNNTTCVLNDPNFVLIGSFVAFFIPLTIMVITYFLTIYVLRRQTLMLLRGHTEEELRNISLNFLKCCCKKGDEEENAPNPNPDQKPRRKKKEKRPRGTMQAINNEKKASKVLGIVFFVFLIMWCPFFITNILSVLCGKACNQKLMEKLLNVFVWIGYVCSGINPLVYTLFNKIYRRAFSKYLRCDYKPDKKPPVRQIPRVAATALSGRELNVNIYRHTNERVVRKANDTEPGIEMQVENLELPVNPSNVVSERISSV
Assay: not given
Details: mice that express the normal 5-HT2c receptor; cited from earlier work
For `Clc1cccc(N2CCNCC2)c1` [mCPP, m-chlorophenylpiperazine], the food intake is listed as “reduces food intake”.

Test system: not given
Assay: not given
Details: not given
Molecule `c1cc2c(cc1COc1cncc(N3CCNCC3)n1)OCO2` (as salt: acetate) [Example 3, 2-(1,3-Benzodioxol-5-ylmethoxy)-6-(1-piperazinyl)pyrazine] has a melting point of 124 to 127 °C.
Molecule `COc1cccc(COc2cncc(N3CCNCC3)n2)c1` (as salt: acetate) [Example 4, 2-[(3-Methoxybenzyl)oxy]-6-(1-piperazinyl)pyrazine] has a melting point of 111 to 113 °C.
`Fc1cc(F)cc(COc2cncc(N3CCNCC3)n2)c1` (as salt: acetate) [Example 6, 2-[(3,5-Difluorobenzyl)oxy]-6-(1-piperazinyl)pyrazine] showed a melting point of 70 to 72 °C.
`c1ccc(-c2ccc(COc3cncc(N4CCNCC4)n3)cc2)cc1` (as salt: acetate) [Example 7, 2-([1,1′-Biphenyl]-4-ylmethoxy)-6-(1-piperazinyl)pyrazine] showed a melting point of 102 to 104 °C.
Molecule `Clc1cccc(CCOc2cncc(N3CCNCC3)n2)c1` (as salt: acetate) [Example 8, 2-[2-(3-Chlorophenyl)ethoxy]-6-(1-piperazinyl)pyrazine] has a melting point of 118 to 119 °C.
`c1ccc2c(c1)CCCC2Oc1cncc(N2CCNCC2)n1` (centres unmarked) (as salt: acetate) [Example 9, 6-(1-Piperazinyl)-2-pyrazinyl 1,2,3,4-tetrahydro-1-naphthalenyl ether] showed a melting point of 160 to 162 °C.
`FC(F)(F)c1ccc(COc2cncc(N3CCNCC3)n2)cc1` (as salt: acetate) [Example 10, 2-(1-Piperazinyl)-6-{[4-(trifluoromethyl)benzyl]oxy}pyrazine] showed a melting point of 84 to 85 °C.
Work on `c1cncc(COc2cncc(N3CCNCC3)n2)c1` (as salt: acetate) [Example 11, 2-(1-Piperazinyl)-6-(3-pyridinylmethoxy)pyrazine] yielded a melting point of 98 to 99 °C.
Work on `c1cncc(CCOc2cncc(N3CCNCC3)n2)c1` (as salt: acetate) [Example 12, 2-(1-Piperazinyl)-6-[2-(3-pyridinyl)ethoxy]pyrazine] yielded a melting point of 90 to 91 °C.
`COc1ccccc1COc1cncc(N2CCNCC2)n1` (as salt: hydrochloride) [Example 5, 2-[(2-Methoxybenzyl)oxy]-6-(1-piperazinyl)pyrazine] showed a melting point of 171 to 173 °C.
Molecule `c1ccc(CCOc2cncc(N3CCNCC3)n2)cc1` (as salt: maleate) [Example 14, 2-(2-Phenylethoxy)-6-(1-piperazinyl)pyrazine] has a melting point of 166 to 168 °C.
`c1ccc(COc2cncc(N3CCNCC3)n2)cc1` (as salt: maleate) [Example 20, 2-(Benzyloxy)-6-(1-piperazinyl)pyrazine] gave a melting point of 155 to 156 °C.
In the case of `c1ccc2c(c1)OCCC2Oc1cncc(N2CCNCC2)n1` (centres unmarked) (as salt: maleate) [Example 26, 2-(3,4-Dihydro-2H-chromen-4-yloxy)-6-(1-piperazinyl)pyrazine], the melting point is reported as 179.5 to 182 °C.
In the case of `c1ccc2c(c1)ccn2CCOc1cncc(N2CCNCC2)n1` (as salt: maleate) [Example 28, 2-[2-(1H-Indol-1-yl)ethoxy]-6-(1-piperazinyl)pyrazine], the melting point is reported as 160.5 to 163 °C.
With `COc1cc(COc2cncc(N3CCNCC3)n2)cc(OC)c1` (as salt: maleate) [Example 68, 2-[(3,5-Dimethoxybenzyl)oxy]-6-(1-piperazinyl)pyrazine] the melting point was 134 to 137 °C.
`COc1ccc(CCOc2cncc(N3CCNCC3)n2)cc1` (as salt: maleate) [Example 69, 2-[2-(4-Methoxyphenyl)ethoxy]-6-(1-piperazinyl)pyrazine] showed a melting point of 149 to 151 °C.
For `c1ccc2c(CCOc3cncc(N4CCNCC4)n3)c[nH]c2c1` [Example 29, 2-[2-(1H-Indol-3-yl)ethoxy]-6-(1-piperazinyl)pyrazine], the melting point was 133 to 135 °C.
Work on `Fc1ccc(COc2cncc(N3CCNCC3)n2)cc1` [Example 42, 2-[(4-Fluorobenzyl)oxy]-6-(1-piperazinyl)pyrazine] yielded a melting point of 183 °C.
`COc1cccc(CCOc2cncc(OC3CCNCC3)n2)c1` [Example 45, 2-[2-(3-Methoxyphenyl)ethoxy]-6-(4-piperidinyloxy)pyrazine] gave a melting point of 86 to 87 °C.
